Laboratory results: patent US7767659B2, “Synthesis of naturally occurring ecteinascidins and related compounds” (Pharma Mar, S.A., priority 2002, dated 2010)

Tests used:
SK-BR-3 = assay: Inhibition of cells growth by colorimetric assay (SRB); conditions: Homo sapiens, SK-BR-3, 48 h; for GI50: read-out: SK-BR3 GI50; for CC50: read-out: SK-BR3 LC50; for IC (TGI): read-out: SK-BR3 TGI
Method in brief: (§1)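 Colorimetric SRB read (490 nm) on triplicate wells after 48 h at 37 °C, 5% CO2. Dose range 10 to 10^−8 μg/ml; 5×10^3 cells/well pre-attached 18 h.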

LoVo-Dox = assay: as above; conditions: Homo sapiens, 48 h; for GI50: read-out: LOVO-DOX GI50; for CC50: read-out: LOVO-DOX LC50; for IC (TGI): read-out: LOVO-DOX TGI
Method in brief: as §1

K-562 = assay: as above; conditions: Homo sapiens, K562, 48 h; for GI50: read-out: K562 GI50; for CC50: read-out: K562 LC50; for IC (TGI): read-out: K562 TGI
Method in brief: as §1

DU-145 = assay: as above; conditions: Homo sapiens, DU-145, 48 h; for GI50: read-out: DU145 GI50; for CC50: read-out: DU145 LC50; for IC (TGI): read-out: DU145 TGI
Method in brief: as §1

IGROV-1 = assay: as above; conditions: Homo sapiens, IGROV-1, 48 h; for GI50: read-out: IGROV GI50; for CC50: read-out: IGROV LC50; for IC (TGI): read-out: IGROV TGI
Method in brief: as §1

PANC-1 = assay: as above; conditions: Homo sapiens, PANC-1, 48 h; for GI50: read-out: PANC-1 GI50; for CC50: read-out: PANC-1 LC50; for IC (TGI): read-out: PANC-1 TGI
Method in brief: as §1

IGROV-ET = assay: as above; conditions: Homo sapiens, 48 h; for GI50: read-out: IGROV-ET GI50; for CC50: read-out: IGROV-ET LC50; for IC (TGI): read-out: IGROV-ET TGI
Method in brief: as §1

LNCaP = assay: as above; conditions: Homo sapiens, LNCaP, 48 h; for GI50: read-out: LNCAP GI50; for CC50: read-out: LNCAP LC50; for IC (TGI): read-out: LNCAP TGI
Method in brief: as §1

SK-MEL-28 = assay: as above; conditions: Homo sapiens, SK-MEL-28, 48 h; for GI50: read-out: MEL-28 GI50; for CC50: read-out: MEL-28 LC50; for IC (TGI): read-out: MEL-28 TGI
Method in brief: as §1

HeLa-APL = assay: as above; conditions: Homo sapiens, 48 h; for GI50: read-out: HELA-APL GI50; for CC50: read-out: HELA-APL LC50; for IC (TGI): read-out: HELA-APL TGI
Method in brief: as §1

HeLa = assay: as above; conditions: Homo sapiens, HeLa, 48 h; for GI50: read-out: HELA GI50; for CC50: read-out: HELA LC50; for IC (TGI): read-out: HELA TGI
Method in brief: as §1

LoVo = assay: cells; conditions: Homo sapiens, LoVo, 48 h; for GI50: read-out: LOVO GI50; for CC50: read-out: LOVO LC50; for IC (TGI): read-out: LOVO TGI
Method in brief: as §1

HT-29 = assay: cells; conditions: Homo sapiens, HT-29, 48 h; for GI50: read-out: HT29 GI50; for CC50: read-out: HT29 LC50; for IC (TGI): read-out: HT29 TGI
Method in brief: as §1

A-549 = assay: cells; conditions: Homo sapiens, A549, 48 h; for GI50: read-out: A549 GI50; for CC50: read-out: A549 LC50; for IC (TGI): read-out: A549 TGI
Method in brief: as §1

## COc1c(C)cc2c(c1O)[C@H]1N[C@@H](C2)[C@H](O)N2C1[C@@H]1SC[C@]3(NCCc4c3[nH]c3ccccc43)C(=O)OC[C@H]2c2c3c(c(C)c(OC(C)=O)c21)OCO3 (stereo partly drawn) [compound 63]
SK-BR-3
  GI50: 3.93 nM
  CC50: 198 nM
  IC (TGI): 8.98 nM
LoVo-Dox
  GI50: 398 nM
  CC50: 13500 nM
  IC (TGI): 1090 nM
K-562
  GI50: 3.86 nM
  CC50: 634 nM
  IC (TGI): 7.92 nM
DU-145
  GI50: 3.48 nM
  CC50: 4400 nM
  IC (TGI): 7.24 nM
IGROV-1
  GI50: 5.4 nM
  CC50: 4.49 nM
  IC (TGI): 15 nM
PANC-1
  GI50: 4.6 nM
  CC50: 4270 nM
  IC (TGI): 17.4 nM
IGROV-ET
  GI50: 75.9 nM
  CC50: 13300 nM
  IC (TGI): 537 nM
LNCaP
  GI50: 2.86 nM
  CC50: 10 nM
  IC (TGI): 5.36 nM
SK-MEL-28
  GI50: 5.64 nM
  CC50: 52.6 nM
  IC (TGI): 17 nM
HeLa-APL
  GI50: 11 nM
  CC50: 150 nM
  IC (TGI): 39.8 nM
HeLa
  GI50: 3.16 nM
  CC50: 12.5 nM
  IC (TGI): 6.29 nM
LoVo
  GI50: 8.63 nM
  CC50: 13500 nM
  IC (TGI): 54.8 nM
HT-29
  GI50: 9.17 nM
  CC50: 13500 nM
  IC (TGI): 327 nM
A-549
  GI50: 24 nM
  CC50: 273 nM
  IC (TGI): 61.4 nM

## COC1=C(C)C(=O)C2=C(C1=O)C1C3[C@@H]4SCC(=O)C(=O)OC[C@@H](c5c6c(c(C)c(OC(C)=O)c54)OCO6)N3[C@@H](O)[C@H](C2)N1C (stereo partly drawn) [Et-594-quinone]
SK-BR-3
  GI50: 302 nM
  CC50: 1160 nM
  IC (TGI): 593 nM
LoVo-Dox
  GI50: 6270 nM
  CC50: 16300 nM
  IC (TGI): 13100 nM
K-562
  GI50: 137 nM
  CC50: 1620 nM
  IC (TGI): 478 nM
DU-145
  GI50: 1990 nM
  CC50: 14600 nM
  IC (TGI): 5390 nM
IGROV-1
  GI50: 452 nM
  CC50: 3640 nM
  IC (TGI): 958 nM
PANC-1
  GI50: 1580 nM
  CC50: 14900 nM
  IC (TGI): 4860 nM
IGROV-ET
  GI50: 4370 nM
  CC50: 16300 nM
  IC (TGI): 9110 nM
LNCaP
  GI50: 274 nM
  CC50: 901 nM
  IC (TGI): 498 nM
SK-MEL-28
  GI50: 413 nM
  CC50: 1320 nM
  IC (TGI): 738 nM
HeLa-APL
  GI50: 398 nM
  CC50: 1140 nM
  IC (TGI): 674 nM
HeLa
  GI50: 343 nM
  CC50: 1120 nM
  IC (TGI): 620 nM
LoVo
  GI50: 759 nM
  CC50: 16300 nM
  IC (TGI): 2910 nM
HT-29
  GI50: 653 nM
  CC50: 16300 nM
  IC (TGI): 1710 nM
A-549
  GI50: 2350 nM
  CC50: 10300 nM
  IC (TGI): 4910 nM
